Measurements: PubChem BioAssay (NCI)
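Values below derive from 48-hour exposures of cells grown in 96-well plates, with endpoints linearly interpolated between the two concentrations bracketing the appropriate inhibition level. GI50: concentration for 50% inhibition of growth. TGI: concentration producing complete growth inhibition.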

Columns and labels:
Test in all cases: DTP human tumour cell line panel, 48 h
IGROV1 ovarian = system: IGROV1 ovarian
U251 CNS = system: U251 CNS
OVCAR-4 ovarian = system: OVCAR-4 ovarian
HL-60(TB) leukemia = system: HL-60(TB) leukemia
SNB-19 CNS = system: SNB-19 CNS
MOLT-4 leukemia = system: MOLT-4 leukemia
786-0 renal = system: 786-0 renal
OVCAR-5 ovarian = system: OVCAR-5 ovarian
SW-620 colon = system: SW-620 colon
T-47D breast = system: T-47D breast
NCI-H23 lung = system: NCI-H23 lung
TK-10 renal = system: TK-10 renal
SF-268 CNS = system: SF-268 CNS
SN12C renal = system: SN12C renal
MDA-MB-231 breast = system: MDA-MB-231 breast
SR leukemia = system: SR leukemia
A549 NSCLC = system: A549 NSCLC
RXF 393 renal = system: RXF 393 renal
HCT-116 colon = system: HCT-116 colon
NCI-H226 lung = system: NCI-H226 lung
HS 578T breast = system: HS 578T breast
HT29 colon = system: HT29 colon
MCF7 breast = system: MCF7 breast
K-562 leukemia = system: K-562 leukemia
SK-MEL-5 melanoma = system: SK-MEL-5 melanoma
UACC-257 melanoma = system: UACC-257 melanoma
HOP-62 NSCLC = system: HOP-62 NSCLC
M14 melanoma = system: M14 melanoma
SF-295 CNS = system: SF-295 CNS
SK-MEL-2 melanoma = system: SK-MEL-2 melanoma
PC-3 prostate = system: PC-3 prostate
OVCAR-8 ovarian = system: OVCAR-8 ovarian
HCT-15 colon = system: HCT-15 colon
RPMI-8226 leukemia = system: RPMI-8226 leukemia
HOP-92 NSCLC = system: HOP-92 NSCLC
SK-MEL-28 melanoma = system: SK-MEL-28 melanoma
SK-OV-3 ovarian = system: SK-OV-3 ovarian
LOX IMVI melanoma = system: LOX IMVI melanoma
SNB-75 CNS = system: SNB-75 CNS
HCC-2998 colon = system: HCC-2998 colon
CCRF-CEM leukemia = system: CCRF-CEM leukemia
SF-539 CNS = system: SF-539 CNS
CAKI-1 renal = system: CAKI-1 renal
NCI/ADR-RES ovarian = system: NCI/ADR-RES ovarian
MDA-MB-435 = system: MDA-MB-435
KM12 colon = system: KM12 colon
ACHN renal = system: ACHN renal
OVCAR-3 ovarian = system: OVCAR-3 ovarian
EKVX NSCLC = system: EKVX NSCLC
UO-31 renal = system: UO-31 renal
DU-145 prostate = system: DU-145 prostate
A498 renal = system: A498 renal
NCI-H460 lung = system: NCI-H460 lung
BT-549 breast = system: BT-549 breast

CCCN(CCC)S(=O)(=O)c1ccc(C(=O)O)cc1.CCCN(CCC)S(=O)(=O)c1ccc(C(=O)O)cc1.[Cl][Pt+2][Cl].[NH2-].[NH2-]
GI50 (IGROV1 ovarian): 3.6 µM | TGI (IGROV1 ovarian): 24.2 µM | GI50 (U251 CNS): 0.995 µM | TGI (U251 CNS): > 84.2 µM | GI50 (OVCAR-4 ovarian): 4.57 µM | TGI (OVCAR-4 ovarian): > 100 µM | GI50 (HL-60(TB) leukemia): 0.221 µM | TGI (HL-60(TB) leukemia): > 100 µM | GI50 (SNB-19 CNS): 1.6 µM | TGI (SNB-19 CNS): 60.5 µM | GI50 (MOLT-4 leukemia): 0.246 µM | TGI (MOLT-4 leukemia): > 100 µM | GI50 (786-0 renal): 1.44 µM | TGI (786-0 renal): > 100 µM | GI50 (OVCAR-5 ovarian): 1.44 µM | TGI (OVCAR-5 ovarian): > 100 µM | GI50 (SW-620 colon): 0.518 µM | TGI (SW-620 colon): > 100 µM | GI50 (T-47D breast): 0.349 µM | TGI (T-47D breast): > 100 µM | GI50 (NCI-H23 lung): 0.249 µM | TGI (NCI-H23 lung): 2.81 µM | GI50 (TK-10 renal): > 100 µM | TGI (TK-10 renal): > 100 µM | GI50 (SF-268 CNS): 0.7 µM | TGI (SF-268 CNS): > 100 µM | GI50 (SN12C renal): 0.2 µM | TGI (SN12C renal): > 100 µM | GI50 (MDA-MB-231 breast): 3.15 µM | TGI (MDA-MB-231 breast): > 58.3 µM | GI50 (SR leukemia): 0.112 µM | TGI (SR leukemia): > 100 µM | GI50 (A549 NSCLC): 2.89 µM | TGI (A549 NSCLC): > 100 µM | GI50 (RXF 393 renal): 0.425 µM | TGI (RXF 393 renal): 5.08 µM | GI50 (HCT-116 colon): 0.945 µM | TGI (HCT-116 colon): > 52 µM | GI50 (NCI-H226 lung): 4.04 µM | TGI (NCI-H226 lung): 99.6 µM | GI50 (HS 578T breast): 13.9 µM | TGI (HS 578T breast): > 100 µM | GI50 (HT29 colon): 2.76 µM | TGI (HT29 colon): > 100 µM | GI50 (MCF7 breast): 0.149 µM | TGI (MCF7 breast): > 100 µM | GI50 (K-562 leukemia): 0.179 µM | TGI (K-562 leukemia): > 100 µM | GI50 (SK-MEL-5 melanoma): 0.476 µM | TGI (SK-MEL-5 melanoma): 1.8 µM | GI50 (UACC-257 melanoma): 2.13 µM | TGI (UACC-257 melanoma): > 100 µM | GI50 (HOP-62 NSCLC): 0.653 µM | TGI (HOP-62 NSCLC): > 95 µM | GI50 (M14 melanoma): 1 µM | TGI (M14 melanoma): > 100 µM | GI50 (SF-295 CNS): 1.64 µM | TGI (SF-295 CNS): > 100 µM | GI50 (SK-MEL-2 melanoma): 2.03 µM | TGI (SK-MEL-2 melanoma): 5.21 µM | GI50 (PC-3 prostate): 2.25 µM | TGI (PC-3 prostate): > 100 µM | GI50 (OVCAR-8 ovarian): 1.4 µM | TGI (OVCAR-8 ovarian): > 100 µM | GI50 (HCT-15 colon): > 100 µM | TGI (HCT-15 colon): > 100 µM | GI50 (RPMI-8226 leukemia): 0.289 µM | GI50 (HOP-92 NSCLC): 0.596 µM | TGI (HOP-92 NSCLC): > 21.8 µM | GI50 (SK-MEL-28 melanoma): 0.733 µM | TGI (SK-MEL-28 melanoma): > 24.1 µM | GI50 (SK-OV-3 ovarian): 1.58 µM | TGI (SK-OV-3 ovarian): 22 µM | GI50 (LOX IMVI melanoma): 0.349 µM | TGI (LOX IMVI melanoma): > 45.2 µM | GI50 (SNB-75 CNS): 0.666 µM | TGI (SNB-75 CNS): 13.3 µM | GI50 (HCC-2998 colon): 0.926 µM | TGI (HCC-2998 colon): 9.49 µM | GI50 (CCRF-CEM leukemia): 0.138 µM | GI50 (SF-539 CNS): 0.289 µM | TGI (SF-539 CNS): > 33.2 µM | GI50 (CAKI-1 renal): 2.27 µM | TGI (CAKI-1 renal): > 100 µM | GI50 (NCI/ADR-RES ovarian): > 100 µM | TGI (NCI/ADR-RES ovarian): > 100 µM | GI50 (MDA-MB-435): 0.801 µM | TGI (MDA-MB-435): 2.72 µM | GI50 (KM12 colon): 2.61 µM | TGI (KM12 colon): > 100 µM | GI50 (ACHN renal): 0.477 µM | TGI (ACHN renal): > 100 µM | GI50 (OVCAR-3 ovarian): 1.07 µM | TGI (OVCAR-3 ovarian): > 27 µM | GI50 (EKVX NSCLC): 8.4 µM | TGI (EKVX NSCLC): > 100 µM | GI50 (UO-31 renal): > 72.6 µM | TGI (UO-31 renal): > 100 µM | GI50 (DU-145 prostate): 0.351 µM | TGI (DU-145 prostate): > 100 µM | GI50 (A498 renal): 29.6 µM | TGI (A498 renal): > 85.4 µM | GI50 (NCI-H460 lung): 0.151 µM | TGI (NCI-H460 lung): > 68.6 µM | GI50 (BT-549 breast): 0.369 µM | TGI (BT-549 breast): 1.9 µM
